Results from ChEMBL document CHEMBL3421538, “Structure-activity relationships and molecular studies of novel arylpiperazinylalkyl purine-2,4-diones and purine-2,4,8-triones with antidepressant and anxiolytic-like activity” (Eur J Med Chem, 2015).
Active and inactive are the calls of the source. No cut-off for these calls is given here.

Key:
[1] = molecular target: T1, 5-hydroxytryptamine receptor 7 (Homo sapiens, UniProt P34969); experiment: Agonist activity at human 5-HT7 receptor expressed in HEK293 cells assessed as stimulation of cAMP levels at 0.1 uM relative to 5HT; format: functional, cell-based
T1 sequence (P34969 whole entry): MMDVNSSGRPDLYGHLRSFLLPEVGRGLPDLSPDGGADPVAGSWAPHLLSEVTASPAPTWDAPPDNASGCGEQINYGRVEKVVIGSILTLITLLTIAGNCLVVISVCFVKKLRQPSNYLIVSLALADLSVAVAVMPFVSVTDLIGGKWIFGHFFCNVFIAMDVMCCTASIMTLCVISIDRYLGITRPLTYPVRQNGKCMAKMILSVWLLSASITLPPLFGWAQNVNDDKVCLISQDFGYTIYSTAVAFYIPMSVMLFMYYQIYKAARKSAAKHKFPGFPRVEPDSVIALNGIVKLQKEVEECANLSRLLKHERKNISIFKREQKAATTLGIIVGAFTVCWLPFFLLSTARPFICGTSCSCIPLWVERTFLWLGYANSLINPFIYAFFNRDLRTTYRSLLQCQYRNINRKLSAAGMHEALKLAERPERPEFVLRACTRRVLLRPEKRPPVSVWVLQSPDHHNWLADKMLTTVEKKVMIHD

[2] = molecular target: T2, 5-hydroxytryptamine receptor 1A (Homo sapiens) (UniProt P08908); experiment: Antagonist activity against human 5-HT1A receptor expressed in HEK293 cells assessed as inhibition of […]-induced cAMP levels at 0.1 uM; format: functional, cell-based
T2 sequence (whole entry): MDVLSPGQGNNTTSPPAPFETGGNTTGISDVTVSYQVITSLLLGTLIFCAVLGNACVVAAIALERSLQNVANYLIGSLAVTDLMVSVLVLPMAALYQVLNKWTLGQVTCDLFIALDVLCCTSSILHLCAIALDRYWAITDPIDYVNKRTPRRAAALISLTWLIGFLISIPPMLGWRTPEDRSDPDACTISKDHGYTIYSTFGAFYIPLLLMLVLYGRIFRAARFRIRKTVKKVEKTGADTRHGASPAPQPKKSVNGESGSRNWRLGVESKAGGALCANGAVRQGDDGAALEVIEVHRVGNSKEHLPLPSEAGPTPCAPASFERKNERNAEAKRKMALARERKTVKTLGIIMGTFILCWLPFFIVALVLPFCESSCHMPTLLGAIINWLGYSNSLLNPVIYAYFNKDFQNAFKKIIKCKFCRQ

[3] = molecular target: T1, 5-hydroxytryptamine receptor 7; experiment: Agonist activity at human 5-HT7 receptor expressed in HEK293 cells assessed as stimulation of cAMP levels at 1 uM relative to 5HT; format: functional, cell-based
Mus musculus [4] = experiment: Toxicity in Swiss mouse assessed as spontaneous locomotor activity at 0.625 to 5 mg/kg, ip measured during 2 to 6 mins; format: organism-based; parameters: route intraperitoneal; details: in vivo
Mus musculus [5] = experiment: Anxiolytic-like activity in Swiss mouse assessed as increase in number of punished crossings measured during 60 seconds period at 1.25 to 5 mg/kg, ip by four-plate test; format: functional, organism-based
[6] = molecular target: T1, 5-hydroxytryptamine receptor 7; experiment: Displacement of [3H]LSD from human recombinant 5-HT7 receptor expressed in CHOK1 cells incubated for 60 mins by microbeta plate reader based method; format: cell-based, CHO-K1
Mus musculus [7] = experiment: Antidepressant-like activity in Swiss mouse assessed as reduction in immobility time at 1.25 mg/kg, ip administered 60 mins before test; format: functional; parameters: scale not given: the % may be the effect or the level left; details: route intraperitoneal
Mus musculus [8] = experiment: Potency index, ratio of MED for imipramine to MED for compound for antidepressant-like activity in ip dosed Swiss mouse; format: functional
[9] = molecular target: T2, 5-hydroxytryptamine receptor 1A (Homo sapiens); experiment: Antagonist activity against human 5-HT1A receptor expressed in HEK293 cells assessed as inhibition of […]-induced cAMP levels at 1 uM; format: functional, cell-based
[10] = molecular target: T3, 5-hydroxytryptamine receptor 6 (Homo sapiens, UniProt P50406); experiment: Displacement of [3H]LSD from human recombinant 5-HT6 receptor expressed in HEK293 cells incubated for 60 mins by microbeta plate reader based method; format: cell-based
T3 sequence (P50406 whole entry): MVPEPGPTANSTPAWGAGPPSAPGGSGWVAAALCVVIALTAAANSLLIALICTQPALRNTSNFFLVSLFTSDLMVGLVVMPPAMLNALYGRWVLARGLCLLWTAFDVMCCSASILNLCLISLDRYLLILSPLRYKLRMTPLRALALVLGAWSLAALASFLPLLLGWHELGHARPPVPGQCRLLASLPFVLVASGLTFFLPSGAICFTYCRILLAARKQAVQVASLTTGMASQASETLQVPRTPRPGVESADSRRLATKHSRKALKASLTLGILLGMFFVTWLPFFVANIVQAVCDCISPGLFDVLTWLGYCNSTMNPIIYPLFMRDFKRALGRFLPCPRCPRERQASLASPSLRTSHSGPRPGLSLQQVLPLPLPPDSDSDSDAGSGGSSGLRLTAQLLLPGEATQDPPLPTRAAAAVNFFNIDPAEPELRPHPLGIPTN

Mus musculus [11] = experiment: Antidepressant-like activity in ip dosed Swiss mouse assessed as reduction in immobility time administered 60 mins before test; format: functional; details: read-out: MED
D(2) dopamine receptor [12] = molecular target: T4, D(2) dopamine receptor (Homo sapiens, UniProt P14416); experiment: Antagonist activity against human dopamine D2L receptor expressed in HEK293 cells assessed as inhibition of […]-induced cAMP levels at 0.1 uM; format: functional, cell-based
T4 sequence (P14416 whole entry): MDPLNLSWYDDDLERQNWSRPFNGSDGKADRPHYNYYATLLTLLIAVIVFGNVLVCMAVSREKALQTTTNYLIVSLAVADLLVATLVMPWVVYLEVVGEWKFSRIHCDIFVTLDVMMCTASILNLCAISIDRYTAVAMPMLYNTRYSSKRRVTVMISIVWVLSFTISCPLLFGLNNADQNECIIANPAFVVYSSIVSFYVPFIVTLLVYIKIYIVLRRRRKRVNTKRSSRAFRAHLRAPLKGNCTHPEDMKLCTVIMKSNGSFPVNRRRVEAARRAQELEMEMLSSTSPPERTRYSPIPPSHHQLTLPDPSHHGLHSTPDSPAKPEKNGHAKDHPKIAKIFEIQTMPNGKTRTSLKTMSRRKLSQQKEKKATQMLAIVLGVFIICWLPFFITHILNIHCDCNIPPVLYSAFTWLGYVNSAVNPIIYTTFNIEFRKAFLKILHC

Mus musculus [13] = experiment: Antidepressant-like activity in Swiss mouse assessed as reduction in immobility time at 0.625 to 5 mg/kg, ip administered 60 mins before test; format: functional, organism-based
D(2) dopamine receptor [14] = molecular target: T4, D(2) dopamine receptor; experiment: Agonist activity at human D2L receptor expressed in HEK293 cells assessed as stimulation of cAMP levels at 1 uM relative to dopamine; format: functional, cell-based
[15] = molecular target: T1, 5-hydroxytryptamine receptor 7; experiment: Antagonist activity against human 5-HT7 receptor expressed in HEK293 cells assessed as inhibition of 5-HT-induced cAMP levels at 0.1 uM; format: functional, cell-based
[16] = molecular target: T2, 5-hydroxytryptamine receptor 1A (Homo sapiens); experiment: Agonist activity at human 5-HT1A receptor expressed in HEK293 cells assessed as stimulation of cAMP levels at 0.1 uM relative to 8-OH-DPAT; format: functional, cell-based
D(2) dopamine receptor [17] = molecular target: T4, D(2) dopamine receptor; experiment: Antagonist activity against human dopamine D2L receptor expressed in HEK293 cells assessed as inhibition of […]-induced cAMP levels at 1 uM; format: functional, cell-based
[18] = Selectivity index, ratio of Ki for rat hippocampus 5-HT1A receptor to Ki for human recombinant 5-HT7 receptor
[19] = molecular target: T5, 5-hydroxytryptamine receptor 1A (Rattus norvegicus, UniProt P19327); experiment: Displacement of [3H]8-OH-DPAT from rat hippocampus 5-HT1A receptor incubated for 20 mins by microbeta plate reader based method
T5 sequence (P19327 whole entry): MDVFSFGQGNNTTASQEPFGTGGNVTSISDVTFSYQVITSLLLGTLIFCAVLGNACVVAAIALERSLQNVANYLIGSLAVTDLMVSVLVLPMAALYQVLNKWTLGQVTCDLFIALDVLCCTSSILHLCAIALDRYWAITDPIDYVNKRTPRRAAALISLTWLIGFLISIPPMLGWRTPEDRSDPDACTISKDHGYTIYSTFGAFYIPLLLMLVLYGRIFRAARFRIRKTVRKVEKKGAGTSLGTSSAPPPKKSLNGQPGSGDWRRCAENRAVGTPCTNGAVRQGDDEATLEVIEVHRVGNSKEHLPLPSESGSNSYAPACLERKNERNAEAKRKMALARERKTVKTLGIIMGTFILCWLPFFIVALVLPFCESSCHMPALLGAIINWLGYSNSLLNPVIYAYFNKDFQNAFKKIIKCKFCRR

[20] = molecular target: T1, 5-hydroxytryptamine receptor 7; experiment: Antagonist activity against human 5-HT7 receptor expressed in HEK293 cells assessed as inhibition of 5-HT-induced cAMP levels at 1 uM; format: functional, cell-based
D(2) dopamine receptor [21] = molecular target: T4, D(2) dopamine receptor; experiment: Agonist activity at human D2L receptor expressed in HEK293 cells assessed as stimulation of cAMP levels at 0.1 uM relative to dopamine; format: functional, cell-based
[22] = molecular target: T2, 5-hydroxytryptamine receptor 1A (Homo sapiens); experiment: Agonist activity at human 5-HT1A receptor expressed in HEK293 cells assessed as stimulation of cAMP levels at 1 uM relative to 8-OH-DPAT; format: functional, cell-based
D(2) dopamine receptor [23] = molecular target: T4, D(2) dopamine receptor; experiment: Displacement of [3H]N-methylspiperone from human recombinant dopamine D2 receptor expressed in CHOK1 cells incubated for 60 mins by microbeta plate reader based method; format: cell-based, CHO-K1
Mus musculus [24] = experiment: Toxicity in Swiss mouse assessed as spontaneous locomotor activity at 2.5 to 10 mg/kg, ip; format: organism-based; parameters: dose 2.5-10 mg/kg, route intraperitoneal; details: in vivo
Mus musculus [25] = experiment: Toxicity in Swiss mouse assessed as spontaneous locomotor activity at 2.5 to 10 mg/kg, ip measured during 2 to 6 mins; format: organism-based; parameters: route intraperitoneal; details: in vivo
Mus musculus [26] = experiment: Anxiolytic-like activity in Swiss mouse assessed as increase in number of punished crossings measured during 60 seconds period at 25 mg/kg, ip by four-plate test; format: functional; details: route intraperitoneal
Mus musculus [27] = experiment: Antidepressant-like activity in Swiss mouse assessed as reduction in immobility time at 5 mg/kg, ip administered 60 mins before test; format: functional; parameters: scale not given: the % may be the effect or the level left; details: route intraperitoneal
Mus musculus [28] = experiment: Anxiolytic-like activity in Swiss mouse assessed as increase in number of punished crossings measured during 60 seconds period at 2.5 to 10 mg/kg, ip by four-plate test; format: functional, organism-based
Mus musculus [29] = experiment: Antidepressant-like activity in Swiss mouse assessed as reduction in immobility time at 2.5 to 10 mg/kg, ip administered 60 mins before test; format: functional, organism-based
[30] = molecular target: D(3) dopamine receptor (Homo sapiens) (UniProt P35462); experiment: Displacement of [3H]N-methylspiperone from dopamine D3 receptor (unknown origin) assessed as total radioligand binding at 1.66 x 10^-7 M incubated for 60 mins by microbeta plate reader based method
Sequence of D(3) dopamine receptor (Homo sapiens) (P35462 whole entry): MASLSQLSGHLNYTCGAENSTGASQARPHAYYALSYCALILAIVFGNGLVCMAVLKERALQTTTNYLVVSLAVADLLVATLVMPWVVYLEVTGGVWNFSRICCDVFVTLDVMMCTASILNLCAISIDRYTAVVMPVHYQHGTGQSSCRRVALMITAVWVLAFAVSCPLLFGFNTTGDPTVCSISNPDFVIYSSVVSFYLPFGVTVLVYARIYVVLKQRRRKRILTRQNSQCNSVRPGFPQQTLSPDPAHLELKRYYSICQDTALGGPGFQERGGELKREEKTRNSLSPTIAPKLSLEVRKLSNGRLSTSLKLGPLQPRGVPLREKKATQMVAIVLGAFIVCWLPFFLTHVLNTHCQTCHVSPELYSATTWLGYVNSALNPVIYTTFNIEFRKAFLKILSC

[31] = molecular target: D(3) dopamine receptor (Homo sapiens) (UniProt P35462); experiment: Displacement of [3H]N-methylspiperone from dopamine D3 receptor (unknown origin) assessed as total radioligand binding at 1 uM incubated for 60 mins by microbeta plate reader based method
Mus musculus [32] = experiment: Toxicity in Swiss mouse assessed as spontaneous locomotor activity at 2.5 to 20 mg/kg, ip measured during 2 to 6 mins; format: organism-based; parameters: route intraperitoneal; details: in vivo
[33] = molecular target: T3, 5-hydroxytryptamine receptor 6; experiment: Displacement of [3H]LSD from human recombinant 5-HT6 receptor expressed in HEK293 cells assessed as total radioligand binding at 1 uM incubated for 60 mins by microbeta plate reader based method; format: cell-based
Mus musculus [34] = experiment: Anxiolytic-like activity in Swiss mouse assessed as increase in number of punished crossings measured during 60 seconds period at 5 to 20 mg/kg, ip by four-plate test; format: functional, organism-based
Mus musculus [35] = experiment: Antidepressant-like activity in Swiss mouse assessed as reduction in immobility time at 10 mg/kg, ip administered 60 mins before test; format: functional; parameters: scale not given: the % may be the effect or the level left; details: route intraperitoneal
Mus musculus [36] = experiment: Antidepressant-like activity in Swiss mouse assessed as reduction in immobility time at 2.5 to 20 mg/kg, ip administered 60 mins before test; format: functional, organism-based
[37] = molecular target: T6, 5-hydroxytryptamine receptor 1A (Rattus norvegicus) (UniProt P19327); experiment: Displacement of [3H]8-OH-DPAT from rat hippocampus 5-HT1A receptor assessed as total radioligand binding at 1 uM incubated for 20 mins by microbeta plate reader based method
T6 sequence (whole entry): T5 sequence (P19327 whole entry)

[38] = molecular target: T3, 5-hydroxytryptamine receptor 6; experiment: Displacement of [3H]LSD from human recombinant 5-HT6 receptor expressed in HEK293 cells assessed as total radioligand binding at 1.66 x 10^-7 M incubated for 60 mins by microbeta plate reader based method; format: cell-based
[39] = molecular target: T6, 5-hydroxytryptamine receptor 1A (Rattus norvegicus); experiment: Displacement of [3H]8-OH-DPAT from rat hippocampus 5-HT1A receptor assessed as total radioligand binding at 1.66 x 10^-7 M incubated for 20 mins by microbeta plate reader based method

| Activity [1] [%] | inhibition [2] [%] | Activity [3] [%] | Ki [6] [nM] | inhibition [9] [%] | Ki [10] [nM] | inhibition (D(2) dopamine receptor [12]) [%] | Activity (D(2) dopamine receptor [14]) [%] | inhibition [15] [%] | Activity [16] [%] | inhibition (D(2) dopamine receptor [17]) [%] | Ratio Ki [18] | Ki [19] [nM] | inhibition [20] [%] | Activity (D(2) dopamine receptor [21]) [%] | Activity [22] [%] | Ki (D(2) dopamine receptor [23]) [nM] | SMILES | further results |
| --- | --- | --- | --- | --- | --- | --- | --- | --- | --- | --- | --- | --- | --- | --- | --- | --- | --- | --- |
| 1.9 | 71.8 | 9.1 | 122 | 34.7 | 45 | 16.5 | 7.7 | -8.4 | -7 | 75.6 | 0.7 | 93 | 22.1 | 3.1 | 2.3 | 9 | Cn1c(=O)c2c(nc3n(CCCCCN4CCN(c5ccc(Cl)cc5)CC4)c(-c4ccccc4)cn23)n(C)c1=O | Activity (Mus musculus [4]): Non-toxic; Activity (Mus musculus [5]): inactive; Activity (Mus musculus [7]): 40%; Ratio (Mus musculus [8]): 4; minimal effective dose (Mus musculus [11]): 1.25 mg/kg; Activity (Mus musculus [13]): Active |
|  | 92.9 |  | 111 | 87.6 | 405 | 20.9 | 10 |  | 2.3 | 55.9 | 0.19 | 22 |  | 0.8 | 18.7 | 59 | Cc1cn2c3c(=O)n(C)c(=O)n(C)c3nc2n1CCCCCN1CCN(c2ccc(Cl)c(Cl)c2)CC1 | Activity (Mus musculus [24]): Non-toxic; Activity (Mus musculus [25]): Non-toxic; Activity (Mus musculus [26]): 124%; Activity (Mus musculus [27]): 25%; Activity (Mus musculus [28]): Active; Activity (Mus musculus [29]): Active |
| 4.5 | 82.4 | -2.2 | 30 | 104 |  | 45 | 28 | 7.7 | 23.4 | 77.8 | 0.2 | 6 | 64.3 | 19.2 | 37.4 | 4 | Cn1c(=O)c2c(nc3n(CCCCN4CCN(c5ccccc5O)CC4)c(-c4ccccc4)cn23)n(C)c1=O | Activity [30]: 81%; Activity [31]: 39%; Activity (Mus musculus [32]): Non-toxic; Activity [33]: 37%; Activity (Mus musculus [34]): inactive; Activity (Mus musculus [35]): 17%; Activity (Mus musculus [36]): Active; Activity [37]: 7%; Activity [38]: 69%; Activity [39]: 42% |
